We go through 22 compounds from ChEMBL document CHEMBL1909046, “DrugMatrix in vitro pharmacology data”.

Experiment [1] concerns the target Glycine receptor (Rattus norvegicus, UniProt P22771+P24524+P07727+P20781). In kind it is cell membranes, Wistar, Spinal cord, Membrane. Further: in other assays of this panel Not Active means under 50% inhibition at 10 µM.
The target of experiment [2] is T1, Alpha-1D adrenergic receptor (Homo sapiens, UniProt P25100). Further: in other assays of this panel Not Active means under 50% inhibition at 10 µM.
T1 sequence (P25100 whole entry): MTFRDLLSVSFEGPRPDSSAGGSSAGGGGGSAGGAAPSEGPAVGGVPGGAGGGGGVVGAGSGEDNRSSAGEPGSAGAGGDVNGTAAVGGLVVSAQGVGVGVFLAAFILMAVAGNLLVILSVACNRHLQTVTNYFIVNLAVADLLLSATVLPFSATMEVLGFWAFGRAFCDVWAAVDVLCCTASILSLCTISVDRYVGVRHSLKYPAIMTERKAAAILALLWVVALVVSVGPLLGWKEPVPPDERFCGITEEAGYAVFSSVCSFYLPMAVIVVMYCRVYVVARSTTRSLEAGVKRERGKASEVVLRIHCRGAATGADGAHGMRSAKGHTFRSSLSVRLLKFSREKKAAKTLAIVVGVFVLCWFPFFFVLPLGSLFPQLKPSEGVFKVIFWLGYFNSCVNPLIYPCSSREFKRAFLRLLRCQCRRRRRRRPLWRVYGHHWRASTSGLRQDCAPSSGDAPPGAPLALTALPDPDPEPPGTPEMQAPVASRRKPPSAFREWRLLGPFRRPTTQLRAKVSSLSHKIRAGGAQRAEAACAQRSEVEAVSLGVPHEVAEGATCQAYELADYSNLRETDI
It is filed as cell membranes, HEK293, Membrane. The note with it: hek293.

For experiment [3], the target named is Prostaglandin G/H synthase 1 (Homo sapiens, UniProt P23219). Nature of the experiment: biochemical. In kind it is tissue-based, Platelet.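 Further: inhibition of COX-1 enzyme activity, with arachidonic acid supplied as substrate; in other assays of this panel Not Active means under 50% inhibition at 10 µM.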
Chain of Prostaglandin G/H synthase 1 (P23219 whole entry): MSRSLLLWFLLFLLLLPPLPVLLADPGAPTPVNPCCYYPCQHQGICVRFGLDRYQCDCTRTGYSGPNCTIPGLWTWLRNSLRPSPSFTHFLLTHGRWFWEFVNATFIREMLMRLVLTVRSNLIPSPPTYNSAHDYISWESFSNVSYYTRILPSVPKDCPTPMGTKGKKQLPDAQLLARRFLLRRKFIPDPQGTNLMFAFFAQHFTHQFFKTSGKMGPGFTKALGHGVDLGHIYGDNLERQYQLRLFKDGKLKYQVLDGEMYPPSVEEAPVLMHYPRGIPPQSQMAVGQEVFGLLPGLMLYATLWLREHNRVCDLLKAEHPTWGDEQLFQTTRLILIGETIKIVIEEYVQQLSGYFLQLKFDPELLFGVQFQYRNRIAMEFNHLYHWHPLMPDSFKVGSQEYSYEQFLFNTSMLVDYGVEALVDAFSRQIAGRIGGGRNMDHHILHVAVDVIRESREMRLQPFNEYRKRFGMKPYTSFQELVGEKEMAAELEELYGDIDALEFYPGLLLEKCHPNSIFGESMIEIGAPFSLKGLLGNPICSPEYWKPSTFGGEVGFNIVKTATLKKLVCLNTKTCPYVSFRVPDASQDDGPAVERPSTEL
A short description of experiment [4]: DRUGMATRIX: GABAA, Muscimol, Central radioligand binding (ligand: [3H] Muscimol). It is filed as cell membranes, Rattus norvegicus, Wistar, Brain, Membrane. Conditions: Not Active = under 50% inhibition at 10 µM.
In experiment [5] the target is Matrix metalloproteinase-9 (Homo sapiens, UniProt P14780). The experiment is described as follows: biochemical. In kind it is cell-based.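 Further: inhibition of isolated MMP-9 enzyme activity toward a synthetic peptide substrate, from the DrugMatrix protease screening panel; in other assays of this panel Not Active means under 50% inhibition at 10 µM.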
Chain of Matrix metalloproteinase-9 (P14780 whole entry): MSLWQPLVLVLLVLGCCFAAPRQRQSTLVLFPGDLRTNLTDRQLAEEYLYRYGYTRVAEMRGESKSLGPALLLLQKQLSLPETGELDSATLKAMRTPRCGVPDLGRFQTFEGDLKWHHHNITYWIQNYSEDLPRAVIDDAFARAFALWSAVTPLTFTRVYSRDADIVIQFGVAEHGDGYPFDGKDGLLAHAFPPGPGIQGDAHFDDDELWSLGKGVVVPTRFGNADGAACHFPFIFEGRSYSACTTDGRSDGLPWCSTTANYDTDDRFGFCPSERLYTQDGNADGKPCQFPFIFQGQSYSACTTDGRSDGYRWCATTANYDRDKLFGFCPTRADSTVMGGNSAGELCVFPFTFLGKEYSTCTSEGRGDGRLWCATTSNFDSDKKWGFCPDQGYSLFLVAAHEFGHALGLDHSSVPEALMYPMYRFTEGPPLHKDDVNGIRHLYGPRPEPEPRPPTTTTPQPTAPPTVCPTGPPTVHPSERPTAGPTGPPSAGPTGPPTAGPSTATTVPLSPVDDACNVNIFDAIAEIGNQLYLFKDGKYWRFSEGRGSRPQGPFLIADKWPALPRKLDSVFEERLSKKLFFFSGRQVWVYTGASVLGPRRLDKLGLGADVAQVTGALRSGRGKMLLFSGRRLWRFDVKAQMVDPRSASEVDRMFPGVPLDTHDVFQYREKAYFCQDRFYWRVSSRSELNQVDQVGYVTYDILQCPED
Experiment [6] concerns the target T2, Muscarinic acetylcholine receptor M4 (Homo sapiens, UniProt P08173). Further: in other assays of this panel Not Active means under 50% inhibition at 10 µM.
T2 sequence (P08173 whole entry): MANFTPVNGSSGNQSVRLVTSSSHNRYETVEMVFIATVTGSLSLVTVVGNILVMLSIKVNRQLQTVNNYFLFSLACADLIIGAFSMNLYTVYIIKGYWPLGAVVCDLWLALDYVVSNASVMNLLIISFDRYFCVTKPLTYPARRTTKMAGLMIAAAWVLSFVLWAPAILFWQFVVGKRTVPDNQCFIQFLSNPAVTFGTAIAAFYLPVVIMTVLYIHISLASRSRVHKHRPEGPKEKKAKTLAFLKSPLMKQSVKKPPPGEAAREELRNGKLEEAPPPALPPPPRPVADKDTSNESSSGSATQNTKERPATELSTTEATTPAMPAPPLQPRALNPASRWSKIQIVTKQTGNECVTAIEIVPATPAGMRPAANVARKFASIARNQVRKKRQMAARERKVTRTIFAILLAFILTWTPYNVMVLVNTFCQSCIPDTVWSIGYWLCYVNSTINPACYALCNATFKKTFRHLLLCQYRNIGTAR
It is filed as cell membranes, CHO-K1, Membrane. Conditions: cho-k1.

Turning to `CC(C)NNC(=O)c1ccncc1` [IPRONIAZID], the IC50 result in experiment [1], in experiment [2], in experiment [3] (platelet), in experiment [4], in experiment [5] and in experiment [6] was “Not Active” throughout. In experiment [4], the Ki result is “Not Active”.

With `Cc1c(OCC(F)(F)F)ccnc1C[S+]([O-])c1nc2ccccc2[nH]1` (centres undefined) [LANSOPRAZOLE], the IC50 result in experiment [1], in experiment [2], in experiment [3] (platelet), in experiment [4], in experiment [5] and in experiment [6] was “Not Active” in each case. Besides, the Ki result in experiment [4] is “Not Active”.

On to `O=c1cc(N2CCOCC2)oc2c(-c3ccccc3)cccc12` [LY-294002], for which the IC50 result in experiment [1], in experiment [2], in experiment [3] (platelet), in experiment [4], in experiment [5] and in experiment [6] was “Not Active” in each case. Further, the Ki result in experiment [4] was “Not Active”.

`COc1ccc2[nH]cc(CCNC(C)=O)c2c1` [MELATONIN]: the IC50 result in experiment [1], in experiment [2], in experiment [3] (platelet), in experiment [4], in experiment [5] and in experiment [6] was “Not Active” throughout. The Ki result in experiment [4] is reported as “Not Active”.

For `NC(=O)C[S+]([O-])C(c1ccccc1)c1ccccc1` (centres undefined) [MODAFINIL], the concentration for half-maximal inhibition (IC50) result in experiment [1], in experiment [2], in experiment [3] (platelet), in experiment [4], in experiment [5] and in experiment [6] was “Not Active” throughout. The Ki result in experiment [4] is on record as “Not Active”.

Take `CCN(CC)CCOCCC1=CCC2CC1C2(C)C` (centres undefined) [MYRTECAINE]: the IC50 result in experiment [1], in experiment [2], in experiment [3] (platelet), in experiment [4], in experiment [5] and in experiment [6] was “Not Active” each time. For the same compound, the Ki entry in experiment [4] was “Not Active”.

As for `O=C(N/N=C/c1ccc([N+](=O)[O-])o1)c1cc([N+](=O)[O-])cc([N+](=O)[O-])c1O` [NIFURSOL], the 50% inhibitory concentration (IC50) result in experiment [1], in experiment [2], in experiment [3] (platelet), in experiment [4], in experiment [5] and in experiment [6] was “Not Active” each time. Moreover, the Ki entry in experiment [4] is reported as “Not Active”.

On to `COC(=O)Nc1nc2ccc(C(=O)c3cccs3)cc2[nH]1` [NOCODAZOLE], for which the IC50 result in experiment [1], in experiment [2], in experiment [3] (platelet), in experiment [4], in experiment [5] and in experiment [6] was “Not Active” each time. The Ki result in experiment [4] is “Not Active”.

As to `C#CC1(O)CC[C@H]2[C@@H]3CCC4=CC(=O)CC[C@@H]4[C@H]3CC[C@@]21CC` (some centres undefined) [NORGESTREL], the IC50 entry in experiment [1], in experiment [2], in experiment [3] (platelet), in experiment [4], in experiment [5] and in experiment [6] was “Not Active” in each case. For the same compound, the Ki result in experiment [4] was “Not Active”.

In the case of `COC(=O)Nc1nc2ccc([S+]([O-])c3ccccc3)cc2[nH]1` (centres undefined) [OXFENDAZOLE], the IC50 result in experiment [1], in experiment [2], in experiment [3] (platelet), in experiment [4], in experiment [5] and in experiment [6] was “Not Active” each time. Further, the Ki result in experiment [4] was “Not Active”.

As for `CC(=O)O[C@H]1C(=O)[C@@]2(C)[C@H]([C@H](OC(=O)c3ccccc3)[C@]3(O)C[C@H](OC(=O)[C@H](O)[C@@H](NC(=O)c4ccccc4)c4ccccc4)C(C)=C1C3(C)C)[C@]1(OC(C)=O)CO[C@@H]1C[C@@H]2O` [PACLITAXEL], the IC50 entry in experiment [1], in experiment [2], in experiment [3] (platelet), in experiment [4], in experiment [5] and in experiment [6] was “Not Active” each time. Also, the Ki entry in experiment [4] is reported as “Not Active”.

As to `C[n+]1ccc(-c2cc[n+](C)cc2)cc1.[Cl-].[Cl-]` [PARAQUAT DICHLORIDE], the IC50 result in experiment [1], in experiment [2], in experiment [3] (platelet), in experiment [4], in experiment [5] and in experiment [6] was “Not Active” throughout. Besides, the Ki result in experiment [4] is “Not Active”.

Turning to `CC(C)NCC(O)COc1cccc2[nH]ccc12` (centres undefined) [PINDOLOL], the IC50 result in experiment [1], in experiment [2], in experiment [3] (platelet), in experiment [4], in experiment [5] and in experiment [6] was “Not Active” in each case. The Ki entry in experiment [4] was “Not Active”.

With `CCn1cc(C(=O)O)c(=O)c2cnc(N3CCCC3)nc21` [PIROMIDIC ACID], the IC50 result in experiment [1], in experiment [2], in experiment [3] (platelet), in experiment [4], in experiment [5] and in experiment [6] was “Not Active” throughout. Besides, in experiment [4], the Ki entry is reported as “Not Active”.

Consider `C[n+]1ccccc1/C=N/O.[Cl-]` [PRALIDOXIME CHLORIDE], for which the 50% inhibitory concentration (IC50) result in experiment [1], in experiment [2], in experiment [3] (platelet), in experiment [4], in experiment [5] and in experiment [6] was “Not Active” throughout. Besides, in experiment [4], the Ki result was “Not Active”.

Take `C[C@]12C=CC(=O)C=C1CC[C@@H]1[C@@H]2[C@@H](O)C[C@@]2(C)[C@H]1CC[C@]2(O)C(=O)CO` [PREDNISOLONE]: the IC50 entry in experiment [1], in experiment [2], in experiment [3] (platelet), in experiment [4], in experiment [5] and in experiment [6] was “Not Active” in each case. In experiment [4], the Ki entry is on record as “Not Active”.

Turning to `CC(=O)[C@H]1[C@H](C#N)C[C@H]2[C@@H]3CC=C4C[C@@H](O)CC[C@]4(C)[C@H]3CC[C@@]21C` [PREGNENOLONE CARBONITRILE], the IC50 entry in experiment [1], in experiment [2], in experiment [3] (platelet), in experiment [4], in experiment [5] and in experiment [6] was “Not Active” each time. Besides, in experiment [4], the Ki entry is on record as “Not Active”.

As to `CCCN(CCC)S(=O)(=O)c1ccc(C(=O)O)cc1` [PROBENECID], the IC50 result in experiment [1], in experiment [2], in experiment [3] (platelet), in experiment [4], in experiment [5] and in experiment [6] was “Not Active” each time. For the same compound, in experiment [4], the Ki result is reported as “Not Active”.

For the compound `CCCNCC(O)COc1ccccc1C(=O)CCc1ccccc1` (centres undefined) [PROPAFENONE], the IC50 entry in experiment [1], in experiment [2], in experiment [3] (platelet), in experiment [4], in experiment [5] and in experiment [6] was “Not Active” each time. Further, the Ki entry in experiment [4] was “Not Active”.

Consider `CCCOc1ccc(C(=O)OCCN(CC)CC)cc1N` [PROPARACAINE], for which the IC50 result in experiment [1], in experiment [2], in experiment [3] (platelet), in experiment [4], in experiment [5] and in experiment [6] was “Not Active” in each case. The Ki result in experiment [4] is reported as “Not Active”.

Take `CC(C)c1cccc(C(C)C)c1O` [PROPOFOL]: the 50% inhibitory concentration (IC50) (commonly the concentration at which inhibition is half-maximal) in experiment [1] is “Not Active”; in experiment [2] it was “Not Active”; in experiment [3] (read-out: IC50) it was 3.83 µM; in experiment [4] it was “Not Active”; in experiment [5] it was “Not Active”; in experiment [6], “Not Active”. Besides, in experiment [4], the Ki entry was “Not Active”.

As for `C[C@@H]1O[C@@H](O[C@@H]2C=C3CC[C@@H]4[C@H](CC[C@]5(C)[C@@H](c6ccc(=O)oc6)CC[C@]45O)[C@@]3(C)CC2)[C@H](O)[C@H](O)[C@H]1O` [PROSCILLARIDIN], the IC50 entry in experiment [1], in experiment [2], in experiment [3] (platelet), in experiment [4], in experiment [5] and in experiment [6] was “Not Active” throughout. Moreover, the Ki entry in experiment [4] is recorded as “Not Active”.
